By inhibition is commonly meant the drop in the measured response relative to a control, in per cent.

Three molecules from US11021469B2, “Indoline sulfonamide inhibitors of DapE and NDM-1 and use of the same” (priority 2014, dated 2021) can be followed below.

SMILES strings stand for the structures.

The target in the assay is NDM-1 (Klebsiella pneumoniae, UniProt C7C422). The assay can be described thus: Inhibition of NDM-1 assay (CHROMACEF hydrolysis). The class given is biochemical. To be noted: pH 7, read-out: % NMD-1 Inhibition (5 μM). As to the method: The ability of the compounds described herein to inhibit NDM-1 was determined in the following way.
Sequence of NDM-1 (C7C422 36-270 limits assumed): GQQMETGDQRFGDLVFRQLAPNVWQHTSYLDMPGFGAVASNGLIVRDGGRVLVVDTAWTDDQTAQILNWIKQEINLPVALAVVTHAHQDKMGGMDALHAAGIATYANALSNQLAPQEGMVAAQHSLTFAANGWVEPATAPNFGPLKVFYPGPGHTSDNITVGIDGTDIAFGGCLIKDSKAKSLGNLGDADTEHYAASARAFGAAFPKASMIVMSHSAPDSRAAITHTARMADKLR
A Substrate Working Solution was prepared from CRHROMACEF (6 μM) and Tween-20 (0.02% v/v) in water. An Enzyme Working Solution was prepared with NDM-1 (0.5 μg/mL), Hepes (0.1 M), pH 7 and Tween-20 (0.02% v/v). An Inhibitor Working Solution was prepared from 50 mM of the inhibitor in DMSO. The final assay conditions were 1 mL, Hepes (50 mM), pH 7, Tween-20 (0.02% v/v), CHROMACEF (3 uM), Δ35 NDM-1 (0.25 μg/mL). Extra zinc was omitted from these assays because extra ZnSO4 interferes with the metal binding groups in inhibitors.
An aliquot of the Inhibitor Working Solution was added to a polystyrene disposable cuvette to achieve a final concentration of 0-50 μM (in 1 mL final). Supplemental DMSO was added to reach a final volume of 4 μL. NDM-1 Working Solution (0.05 mL) was added to the cuvette and the inhibitor and enzyme were allowed to incubate for about 20 minutes. The reaction was initiated by added 0.5 mL Substrate Working Solution. The solution was mixed quickly, but gently to avoid bubble formation. CHROMACEF […] was recorded to start the reaction. The reaction was mixed fast, but gently. The change in absorbance ΔAbs442nm/min was measured for each inhibitor from the linear slope from each inhibitor concentration.
`CCNS(=O)(=O)c1cc(Br)cc2c1N(C(C)=O)CC2`: the inhibition at 5 µM was 16.8%. Take `CC(=O)N1CCc2cc(Br)cc(S(=O)(=O)NCCC(C)C)c21`: the inhibition at 5 µM stood at 62.7%. As to `CC(=O)N1CCc2cc(Br)cc(S(=O)(=O)NCc3ccccc3)c21`, the inhibition at 5 µM is 27.3%.
